# Results taken from PMC7170498, “Targeted alpha therapy using astatine (^211At)-labeled phenylalanine: A preclinical study in glioma bearing mice” (Oncotarget, 2020).
# Assays:
# [1] = test system: GL261 cells; experiment: In vitro cellular uptake and inhibition assay of ^211At-PA; type: cell-based, murine; conditions: Mus musculus, 20 mM BCH added 5 min before para-^211At-PA, compared to baseline, read-out: inhibition of ^211At-PA uptake by addition of BCH
# Description: (§1) The C6 rat glioma cell line was provided by RIKEN BRC (Tsukuba, Japan) and cultured in F-12K medium (Gibco, Grand Island, NY, USA) containing 10% fetal bovine serum (FBS; Sigma-Aldrich). The U-87 MG human glioblastoma cell line was purchased from American Type Culture Collection (Manassas, VA, USA) and cultured in Modified Eagle’s medium (MEM; Sigma-Aldrich, St. Louis, MO, USA) containing 1% Non Essential Amino Acids (NEAA) + 1 mM Sodium Pyruvate (NaP) and 10% FBS. The GL261 murine glioma cell line was provided by the In Vivo Cellular and Molecular Imaging Lab at Vrije Universiteit, Brussels and cultured in high-glucose Dulbecco’s MEM (DMEM; Wako Pure Chemical, Osaka, Japan) containing 10% FBS. All cells were maintained at 37°C in a humidified incubator containing 5% CO2 and were washed with phosphate-buffered saline (PBS) and harvested with trypsin as necessary. LAT1 expression of these cells were confirmed in previous studies.
# (§2) Initially, the cells were seeded onto a 24-well plate (density: 1 × 10^5/well) and cultured for 2 days. […] Counts per minute (CPM) of the samples were measured by gamma counter. The protein concentrations were measured using the BCA protein assay kit (FUJIFILM Wako Pure Chemical) and a plate reader (Multiskan FC, ThermoFisher Scientific, USA). […]
# [2] = test system: U-87MG cells; experiment: as above; type: cell-based; conditions: Homo sapiens, 20 mM BCH added 5 min before para-^211At-PA, compared to baseline, read-out: inhibition of ^211At-PA uptake by addition of BCH
# Description: as §1, §2
# [3] = test system: C6 glioma cells; experiment: as above; type: cell-based; conditions: Rattus norvegicus, 20 mM BCH added 5 min before para-^211At-PA, compared to baseline, read-out: inhibition of ^211At-PA uptake by addition of BCH
# Description: as §1, §2
# [4] = test system: thyroid gland; conditions: ^211At-astatide deastatinated from ^211At-PA; cited from earlier work
# [5] = Biodistribution and iodine blocking effect in normal ICR mice; type: in vivo, mouse; conditions: for residence time in major organs (meta- versus para-): intravenous
# Description: For the biodistribution study, para- or meta-^211At-PA (0.53 ± 0.04 MBq) was injected into normal male ICR mice (n = 18, 9 weeks old, body weight = 37.7 ± 1.3 g). The mice were sacrificed by euthanasia at 1, 3, and 24 hr post-injection. For the iodine blocking study, normal male ICR mice (n = 6, 9 weeks old, body weight = 37.9 ± 0.9 g) were fed with 2-week iodine-restricted diet. […] The mice were euthanized 3 hr post-administration of para-^211At-PA (0.5 MBq) and dissected.
# The major organs (brain, thyroid gland, salivary gland, heart, lung, esophagus, liver, stomach, small intestine, large intestine, kidney, adrenal gland, pancreas, spleen, and testes) and the blood were collected from each mouse, and the radioactivity and weight of each sample were measured using an AccuFlex γ7000 device (Hitachi, Aloka, Japan). Radioactivity counts were normalized by calibration with a standard solution of ^211At. The residence time (hr) was calculated using the trapezoidal method without decay correction.
# [6] = Stability of the radiolabeled products in vials; type: physicochemical; conditions: for 24 hr
# Description: Ascorbic acid, para-borono-L-phenylalanine (para-BPA), meta-borono-D, L-phenylalanine (meta-BPA), N-bromosuccinimide (NBS), and an injectable solution of 7% sodium hydrogen carbonate (7% NaHCO3) were purchased from Nacalai Tesque (Kyoto, Japan). For the experiments, 1 mg of para-BPA (or meta-BPA) was dissolved in 0.1 mL of 7% NaHCO3. Next, 0.1 mL of the 1% (w/v) para-BPA (or meta-BPA) solution and an aliquot of ^211At aqueous solution (10–20 MBq) were poured into a glass vial, stirred, and mixed with 30 μL of an aqueous solution of 0.4% (w/v) NBS for 30 min at room temperature. Finally, 30 μL of an aqueous solution of 3% (w/v) ascorbic acid was added to the mixture to stop the oxidation reaction, and the mixture was purified using solid-phase extraction. The purified para-^211At-PA or meta-^211At-PA was then analyzed using a high-performance liquid chromatography system (Shimazdu, Kyoto) equipped with a reverse-phase Cosmosil column (5C18 MS2, 150 mm × 4.6 mm; Nacalai Tesque). The products were eluted using a gradient solvent system (0–100% acetonitrile in water) for 20 min and then measured using a gamma-ray detector (GABI star, Elysia-raytest, Germany) and a UV detector at 254 nm.
# [7] = test system: GL261 allograft; experiment: Treatment effect in GL261 allograft mice; type: in vivo, mouse
# Description: (§3) All animal experiments were performed in compliance with the guidelines of the Institute of Experimental Animal Sciences. The protocol was approved by the Animal Care and Use Committee of the Osaka University Graduate School of Medicine. Normal ICR, normal C57BL/6, and nude mice (male) were purchased from Japan SLC Inc. (Hamamatsu, Japan). All animals were housed under a 12-h light/12-hr dark cycle, and given free access to food and water. C6 glioma cells (5.0 × 10^6 cells) or GL-261 cells (1.0 × 10^7 cells) were suspended in 100 μL of culture medium and Matrigel (1:1 ratio; BD Biosciences, Franklin Lakes, NJ, USA). Tumor xenograft and allograft models were prepared via the subcutaneous injection of this C6 glioma cell suspension into each immunodeficient nude mouse (n = 12) and the GL-261 cell suspension into each immunocompetent C57BL/6 mouse (n = 12), respectively.
# Para-^211At-PA was injected into mice bearing C6 glioma xenografts (n = 9; 15 weeks old; body weight = 23.8 ± 1.2 g) and GL261 allografts (n = 7; 8 weeks old; body weight = 23.6 ± 1.2 g) at 23 and 20–21 days after implantation, respectively. […] The tumor uptake was calculated as the percent injected dose (%ID). […] The tumor sizes (mm^3) were monitored using a caliper, calculated using the following elliptical sphere model equation, and compared between the injected and control groups of mice. […]
# [8] = target: T1, L-type amino acid transporter-1 (LAT1) (Homo sapiens, UniProt Q01650); experiment: Transport of para-^211At-PA into Xenopus oocytes expressing LAT1 (compared with LAT2); type: cell-based; conditions: Xenopus oocytes co-expressing 4F2hc; choline buffer; 5, 15, 45 min
# T1 construct: expressed in transfected cells; host or cells: defolliculated Xenopus oocytes injected with polyadenylated cRNA (25 ng/oocyte)
# T1 sequence (Q01650 whole entry): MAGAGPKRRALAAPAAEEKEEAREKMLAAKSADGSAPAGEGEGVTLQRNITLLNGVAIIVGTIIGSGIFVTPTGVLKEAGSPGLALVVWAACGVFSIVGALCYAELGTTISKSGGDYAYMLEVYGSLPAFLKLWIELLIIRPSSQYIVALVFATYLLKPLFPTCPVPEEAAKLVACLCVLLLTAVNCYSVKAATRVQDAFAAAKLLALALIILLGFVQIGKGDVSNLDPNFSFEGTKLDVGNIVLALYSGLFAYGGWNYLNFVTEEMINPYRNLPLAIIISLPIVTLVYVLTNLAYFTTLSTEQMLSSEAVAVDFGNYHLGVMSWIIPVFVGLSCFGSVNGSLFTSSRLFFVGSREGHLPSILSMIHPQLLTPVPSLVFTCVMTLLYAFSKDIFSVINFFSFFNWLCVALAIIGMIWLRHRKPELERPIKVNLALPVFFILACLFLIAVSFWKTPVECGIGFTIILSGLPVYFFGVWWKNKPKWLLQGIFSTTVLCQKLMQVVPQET
# T1 sequence (P08195 102-630 partner): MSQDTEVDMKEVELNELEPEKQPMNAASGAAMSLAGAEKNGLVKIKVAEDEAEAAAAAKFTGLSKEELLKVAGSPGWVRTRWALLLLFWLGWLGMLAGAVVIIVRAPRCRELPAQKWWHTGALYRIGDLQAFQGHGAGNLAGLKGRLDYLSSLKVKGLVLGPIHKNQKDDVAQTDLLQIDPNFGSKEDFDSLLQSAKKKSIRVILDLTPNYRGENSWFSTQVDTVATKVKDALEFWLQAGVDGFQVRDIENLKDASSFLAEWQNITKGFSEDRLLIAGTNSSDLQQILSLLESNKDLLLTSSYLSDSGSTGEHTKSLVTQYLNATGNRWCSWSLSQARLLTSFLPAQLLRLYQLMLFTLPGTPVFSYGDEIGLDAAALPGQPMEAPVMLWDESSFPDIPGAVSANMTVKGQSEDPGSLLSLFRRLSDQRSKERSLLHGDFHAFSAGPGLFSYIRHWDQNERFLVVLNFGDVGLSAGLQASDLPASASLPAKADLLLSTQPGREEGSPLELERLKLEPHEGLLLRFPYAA
# Description: Supplementary Figure 1 lists the cDNAs of human transporters used in this study. First, cRNAs were synthesized in vitro from linearized plasmids using the mMessage mMachine Kit, polyadenylated with a Poly (A) Tailing Kit, and purified with a MEGAclear Kit (all kits: ThermoFisher Scientific, Waltham, MA, USA) according to the manufacturer’s protocols. Next, defolliculated Xenopus oocytes were injected with polyadenylated cRNA (25 ng/oocyte) to induce expression. An equimolar amount of 4F2hc cRNA was co-injected to ensure the functional expression of LAT1 and LAT2 [24–26].
# Amino acid transport was measured in the oocytes 2–4 days after cRNA injection, as previously described. Briefly, the oocytes were incubated at room temperature with 500 μL of uptake buffer (choline uptake solution: 100 mM (CH3)3N (Cl) CH2CH2OH, 2 mM KCl, 1.8 mM CaCl2.2H2O, 1 mM MgCl2, 5 mM HEPES, pH 7.5) containing ^211At-PA (approximately 10kBq/oocyte). Radioactivity was determined using a gamma counter. Nine to 11 oocytes were used for each transport measurement. Two separate experiments were performed using different batches of oocytes to confirm the reproducibility of the results.
# [9] = test system: C6 glioma xenograft; experiment: Treatment effect in C6 glioma xenograft mice; type: in vivo, mouse; conditions: for tumor size ratio (relative to the control): 3 weeks post-injection
# Description: as §3
# Para-^211At-PA was injected into mice bearing C6 glioma xenografts (n = 9; 15 weeks old; body weight = 23.8 ± 1.2 g) and GL261 allografts (n = 7; 8 weeks old; body weight = 23.6 ± 1.2 g) at 23 and 20–21 days after implantation, respectively. C6 glioma xenograft mice were divided into four groups according to the injected dose: 1 MBq (n = 3, 1.19 ± 0.05 MBq), 0.5 MBq (n = 3, 0.55 ± 0.02 MBq), 0.1 MBq (n = 3, 0.09 ± 0.03 MBq), and control mice without para-^211At-PA administration (n = 3). GL261 allograft mice were divided into two groups: 1 MBq (n = 7, 1.07 ± 0.07 MBq) and control (n = 5). Planar imaging was performed using a gamma camera system (E-cam, Siemens) at 30 min and 3 hr after para-^211At-PA administration. This system targeted the X-rays emitted from the daughter nuclide, ^211Po (energy window: 79 keV ± 20%) (6). Image analysis was performed using AMIDE software (ver. 1.0.4). The tumor uptake was calculated as the percent injected dose (%ID). The absorbed dose (Gy) in the tumor was estimated according to a previous report with the normalization to the tumor volume in the calculation process. The tumor sizes (mm^3) were monitored using a caliper, calculated using the following elliptical sphere model equation, and compared between the injected and control groups of mice.
# V = 4/3*π*a^2*b (V: volume of the tumor (mm^3), a: shorter radius (mm) and b: longer radius (mm))
# [10] = test system: C6 glioma xenograft; experiment: Planar imaging and tumor dosimetry in C6 glioma-bearing mice; type: in vivo, mouse
# Description: as §3
# Para-^211At-PA was injected into mice bearing C6 glioma xenografts (n = 9; 15 weeks old; body weight = 23.8 ± 1.2 g) and GL261 allografts (n = 7; 8 weeks old; body weight = 23.6 ± 1.2 g) at 23 and 20–21 days after implantation, respectively. […] The tumor uptake was calculated as the percent injected dose (%ID). […] The tumor sizes (mm^3) were monitored using a caliper, calculated using the following elliptical sphere model equation, and compared between the injected and control groups of mice.
# [11] = test system: intracranial glioblastomas; parameters: method as in PMID 24036694; conditions: intravenous treatment; rats with intracranial glioblastomas; cited from earlier work
# [12] = test system: glioblastoma; parameters: method as in PMID 19269895; conditions: patients with glioblastoma after temozolomide therapy; cited from earlier work
# [13] = NaI 10 mg/kg i.v. 24 and 3 hr before, 3 hr post-administration
smiles,measurement,setting,value
"NC1(C(=O)O)CC2CCC1C2 (stereo not drawn) [BCH, 2-aminobicyclo-(2,2,1)-heptane-2-carboxylic acid]",inhibition at 20000 µM,[1],12.6 ± 2%
same,inhibition at 20000 µM,[2],27.6 ± 1.1%
same,inhibition at 20000 µM,[3],12.2 ± 0.8%
[211AtH] [^211At-astatide],reduction of thyroid uptake following pre-administration of iodine,[4],80%
N[C@@H](Cc1cccc([211At])c1)C(=O)O [meta-^211At-PA],residence time in major organs (meta- versus para-),[5],comparable results
same,stability in vials,[6],remained stable
"N[C@@H](Cc1ccc([211At])cc1)C(=O)O [para-^211At-PA, ^211At-para-astato-L-PA]",relative tumor size,"[7]; 1 MBq, day 32",0.24
same,changes in body weights versus control mice,[7]; GL261 allograft model,No significant differences
same,accumulation in the heart and spleen with iodine blocking,[5]; [13],increased accumulation
same,decrease in accumulation in the thyroid by iodine blocking,[5]; [13],81%
same,residence time in major organs (meta- versus para-),[5],comparable results
same,transport into oocytes by LAT1 compared with LAT2,[8],Significantly greater transport
same,stability in vials,[6],remained stable
same,tumor size ratio (relative to the control),[9]; 0.1 MBq,0.60
same,tumor size ratio (relative to the control),[9]; 0.5 MBq,0.40
same,tumor size ratio (relative to the control),[9]; 1 MBq,0.25
same,changes in body weights versus control mice,[9]; C6 glioma xenograft model,No significant differences
same,tumor uptake (planar imaging),[10]; 30 min post-injection,3.7 ± 0.8 %ID
same,tumor uptake (planar imaging),[10]; 3 hr post-injection,1.5 ± 0.2 %ID
same,health conditions and survival durations,[11],improved the health conditions and enhanced the survival durations
Cn1nnc2c(C(N)=O)ncn2c1=O [temozolomide],5-year overall survival rate,[12],9.8%
